Calls of active or inactive are those of the source. The calls are words filed in the database; no cut-off is given here.
How the values were obtained:
[1] = target: Proto-oncogene tyrosine-protein kinase Src (Homo sapiens, UniProt P12931); assay: Inhibition of human wild type partial length Src kinase (L240 to L536 residues) expressed in bacterial expression system assessed as residual activity at 1 uM by KINOMEscan analysis
[2] = target: T1, Epidermal growth factor receptor (Homo sapiens, UniProt P00533); assay: Inhibition of wild type EGFR in human A549 cells assessed as inhibition of EGF-induced EGFR phosphorylation at Tyr1068 residue at 10 uM pretreated with compound for 4 hrs followed by incubation with EGF for 10 mins by western blot analysis; assay type: toxicity, cell-based; conditions: a549, 4.167 h, time 250 min
[3] = test system: A549; assay: Induction of apoptosis in human A549 cells assessed as induction of caspase-3 cleavage at 0.1 to 10 uM pretreated with compound for 4 hrs followed by incubation with EGF for 10 mins by western blot analysis; assay type: toxicity, cell-based; conditions: a549, 4.167 h, dose 0.1-10 µM, time 250 min
[4] = Cmax in Sprague-Dawley rat at 1 mg/kg, iv by LC-MS analysis; assay type: ADME, organism-based; parameters: dose 1 mg/kg, route iv; conditions: in vivo
[5] = test system: NCI-H1975; assay: Antitumor activity against human NCI-H1975 cells xenografted in ip dosed BALB/c mouse assessed as decrease in tumor volume; assay type: functional, organism-based; conditions: dose 5-20 mg/kg/day
[6] = Clearance in Sprague-Dawley rat at 1 mg/kg, iv by LC-MS analysis; assay type: ADME, organism-based; conditions: in vivo
[7] = target: STE20-like serine/threonine-protein kinase (Homo sapiens, UniProt Q9H2G2); assay: Inhibition of human wild type partial length SLK (S14 to A307 residues) expressed in bacterial expression system assessed as residual activity at 1 uM by KINOMEscan analysis
Chain of STE20-like serine/threonine-protein kinase (Q9H2G2 whole entry, looked up, the tested form may be a part): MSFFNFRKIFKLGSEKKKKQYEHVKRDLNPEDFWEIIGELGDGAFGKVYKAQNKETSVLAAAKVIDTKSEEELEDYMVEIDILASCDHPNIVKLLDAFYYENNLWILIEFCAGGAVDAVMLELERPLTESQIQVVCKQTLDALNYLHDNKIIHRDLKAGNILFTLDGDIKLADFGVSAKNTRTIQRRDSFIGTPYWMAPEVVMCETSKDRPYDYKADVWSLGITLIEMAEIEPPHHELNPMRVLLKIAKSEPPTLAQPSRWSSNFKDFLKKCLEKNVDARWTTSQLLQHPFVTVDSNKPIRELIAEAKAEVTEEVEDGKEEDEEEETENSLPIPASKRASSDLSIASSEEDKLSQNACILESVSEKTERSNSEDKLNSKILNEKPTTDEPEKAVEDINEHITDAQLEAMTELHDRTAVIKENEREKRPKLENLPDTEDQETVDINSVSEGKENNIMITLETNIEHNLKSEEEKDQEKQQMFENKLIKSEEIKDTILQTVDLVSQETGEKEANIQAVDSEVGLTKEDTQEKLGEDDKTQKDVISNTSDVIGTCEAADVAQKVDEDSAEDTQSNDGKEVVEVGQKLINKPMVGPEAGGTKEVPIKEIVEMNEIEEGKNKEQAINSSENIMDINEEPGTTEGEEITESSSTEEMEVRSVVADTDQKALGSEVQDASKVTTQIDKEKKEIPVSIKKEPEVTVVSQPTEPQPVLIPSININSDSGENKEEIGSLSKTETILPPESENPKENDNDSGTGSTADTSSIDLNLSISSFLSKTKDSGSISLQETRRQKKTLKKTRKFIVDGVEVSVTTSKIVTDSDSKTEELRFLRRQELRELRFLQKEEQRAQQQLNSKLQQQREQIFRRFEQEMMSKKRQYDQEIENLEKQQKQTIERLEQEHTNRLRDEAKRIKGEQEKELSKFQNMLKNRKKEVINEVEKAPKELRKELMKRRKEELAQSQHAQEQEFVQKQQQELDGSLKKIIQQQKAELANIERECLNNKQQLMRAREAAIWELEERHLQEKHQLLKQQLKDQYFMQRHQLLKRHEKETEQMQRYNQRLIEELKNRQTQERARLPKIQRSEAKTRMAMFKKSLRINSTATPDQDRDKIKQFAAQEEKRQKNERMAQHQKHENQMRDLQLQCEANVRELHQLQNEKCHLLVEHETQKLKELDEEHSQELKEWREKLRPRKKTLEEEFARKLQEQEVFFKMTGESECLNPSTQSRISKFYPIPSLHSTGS

[8] = test system: Epidermal growth factor receptor (Homo sapiens), P00533 [L858R,T790M]; assay: Covalent binding affinity to EGFR L858R/T790M mutant (unknown origin) assessed as enzyme-compound complex formation at protein to compound concentration ratio of 1:4 incubated for 1 hr by LC-MS analysis
[9] = target: wild type EGFR (Homo sapiens, UniProt P00533); assay: Inhibition of human wild type partial length EGFR (R669 to V1011 residues) expressed in bacterial expression system assessed as residual activity at 1 uM by KINOMEscan analysis; assay type: toxicity; conditions: read-out: Activity
[10] = target: T1, Epidermal growth factor receptor; assay: Inhibition of wild type EGFR in human A549 cells assessed as inhibition of EGF-induced Akt phosphorylation at Ser473 residue at 10 uM pretreated with compound for 4 hrs followed by incubation with EGF for 10 mins by western blot analysis; assay type: toxicity, cell-based; conditions: a549, 4.167 h, time 250 min
[11] = test system: NCI-H1975; assay: Antitumor activity against human NCI-H1975 cells xenografted in BALB/c mouse assessed as decrease in Ki-67 expression in tumor at 5 to 20 mg/kg/day, ip by immunohistochemistry; assay type: functional, organism-based; conditions: dose 5-20 mg/kg/day
[12] = test system: NCI-H1975; assay: Induction of apoptosis in human NCI-H1975 cells assessed as induction of caspase-3 cleavage pretreated with compound for 4 hrs followed by incubation with EGF for 10 mins by western blot analysis; assay type: functional, cell-based; conditions: dose 0.1-10 µM, time 250.0 min
[13] = test system: Mus musculus; assay: In vivo inhibition of EGFR L858R/T790M mutant in ip dosed NCI-H1975 cells xenografted BALB/c mouse assessed as inhibition of EGFR phosphorylation at Tyr1068 residue in tumor by immunoblot analysis; assay type: functional, organism-based; conditions: dose 5-20 mg/kg/day
[14] = target: T1, Epidermal growth factor receptor; assay: Inhibition of wild type EGFR in human A-431 cells assessed as inhibition of EGF-induced ERK1/2 phosphorylation at 0.1 to 10 uM pretreated with compound for 4 hrs followed by incubation with EGF for 10 mins by western blot analysis; assay type: toxicity, cell-based; conditions: a-431, 4.167 h, dose 0.1-10 µM, time 250 min
[15] = test system: NCI-H1975; assay: Antiproliferative activity against N-(3-((6-Fluoro-2-((4-(4-methylpiperazin-1-yl)phenyl)amino)quinazolin-4-yl)amino)phenyl)acrylamide-resistant human NCI-H1975 cells assessed as reduction in cell viability at compound:dasatinib concentration ratio of 3:1 to 1:3 measured after 72 hrs in presence of ACK1 inhibitor, Dasatinib by MTT assay; assay type: functional, cell-based
[16] = test system: Epidermal growth factor receptor (Homo sapiens), P00533 [L858R,T790M]; assay: Inhibition of EGFR L858R/T790M mutant in human NCI-H1975 cells assessed as inhibition of EGF-induced EGFR phosphorylation at Tyr1068 residue at 1 uM pretreated with compound for 4 hrs followed by incubation with EGF for 10 mins by western blot analysis; assay type: cell-based; conditions: time 250.0 min
[17] = test system: Epidermal growth factor receptor (Homo sapiens), P00533 [UNDEFINED MUTATION]; assay: Inhibition of human EGFR exon del19 mutant assessed as residual activity at 1 uM by KINOMEscan analysis
[18] = Toxicity in BALB/c mouse xenografted with N-(3-((6-Fluoro-2-((4-(4-methylpiperazin-1-yl)phenyl)amino)quinazolin-4-yl)amino)phenyl)acrylamide-resistant human NCI-H1975 cells assessed as changes in kidney morphological changes at 20 mg/kg/day, ip in presence of ACK1 inhibitor, dasatinib by hematoxylin-eosin staining based analysis; assay type: organism-based; conditions: in vivo
[19] = Half life in Sprague-Dawley rat at 1 mg/kg, iv by LC-MS analysis; assay type: ADME, organism-based; conditions: in vivo
[20] = Toxicity in BALB/c mouse xenografted with human NCI-H1975 cells assessed as change in lung morphological changes at 5 to 20 mg/kg/day, ip by hematoxylin-eosin staining based analysis; assay type: organism-based; conditions: in vivo, dose 5-20 mg/kg/day
[21] = test system: NCI-H1975; assay: Antitumor activity against human NCI-H1975 cells xenografted in BALB/c mouse assessed as inhibition of tumor burden at 20 mg/kg/day, ip; assay type: functional, organism-based
[22] = test system: Mus musculus; assay: In vivo inhibition of EGFR L858R/T790M mutant in NCI-H1975 cells xenografted BALB/c mouse assessed as inhibition of AKT phosphorylation at Ser473 residue in tumor at 20 mg/kg/day, ip by immunoblot analysis; assay type: functional, organism-based
[23] = test system: NCI-H1975; assay: Synergistic antiproliferative activity against N-(3-((6-Fluoro-2-((4-(4-methylpiperazin-1-yl)phenyl)amino)quinazolin-4-yl)amino)phenyl)acrylamide-resistant human NCI-H1975 cells assessed as combination index measured after 72 hrs in presence of ACK1 inhibitor, AIM100 by MTT assay; assay type: functional
[24] = Toxicity in BALB/c mouse xenografted with human NCI-H1975 cells assessed as effect on body weight at 5 to 20 mg/kg/day, ip; assay type: organism-based; conditions: in vivo, dose 5-20 mg/kg/day

Chain of Proto-oncogene tyrosine-protein kinase Src (P12931 2-536 limits assumed): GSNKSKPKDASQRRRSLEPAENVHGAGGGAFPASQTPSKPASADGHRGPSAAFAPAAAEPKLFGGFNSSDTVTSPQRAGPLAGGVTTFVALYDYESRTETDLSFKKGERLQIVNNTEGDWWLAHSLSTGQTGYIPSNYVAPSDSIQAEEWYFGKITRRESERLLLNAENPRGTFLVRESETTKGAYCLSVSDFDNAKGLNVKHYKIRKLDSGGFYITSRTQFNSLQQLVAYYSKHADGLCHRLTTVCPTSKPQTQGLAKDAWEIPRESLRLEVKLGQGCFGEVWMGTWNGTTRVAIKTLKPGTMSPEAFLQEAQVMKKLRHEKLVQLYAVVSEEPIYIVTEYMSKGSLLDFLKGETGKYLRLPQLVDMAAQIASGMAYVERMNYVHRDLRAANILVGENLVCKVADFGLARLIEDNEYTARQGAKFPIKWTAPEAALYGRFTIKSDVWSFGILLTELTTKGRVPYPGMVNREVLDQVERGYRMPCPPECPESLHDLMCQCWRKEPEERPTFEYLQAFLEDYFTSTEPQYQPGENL

With `C=CC(=O)Nc1cccc(Nc2nc(Nc3ccc(N4CCN(C)CC4)cc3)nc3ccc(F)cc23)c1` the Activity [1] was 20%, the “inhibition (INH)” value [2] was “Not Active” and the Activity [3] was “Non-Toxic”. The Cmax [4] was 650 ng/mL, the Activity [5] was “Dose-Dependent Effect” and the clearance [6] was 16.1 mL/min/kg. For the same compound, the Activity [7] was 29%, the Activity [8] was “Active” and the activity at 1 µM [9] was 96%. The “inhibition (INH)” value [10] was “Not Active”, the Activity [11] was “Active” and the Activity [12] was “Dose-Dependent Effect”. The inhibition [13] was “Dose-Dependent Effect”, the “inhibition (INH)” value [14] was “Not Active” and the Activity [15] was “Active”. For the same compound, the inhibition [16] was “Active”, the Activity [17] was 0% and the Activity [18] was “Non-Toxic”. The half-life [19] was 1.76 h, the Activity [20] was “Non-Toxic” and the Activity [21] was “Active”. The inhibition [22] was “Active”, the CI [23] was less than 2 and the Activity [24] was “Non-Toxic”.
